Data published in patent publication US8133847B2, “Pyrido[2,3-B]pyrazine derivatives useful as herbicidal compounds” (Syngenta Limited, priority 2006, dated 2012).

Assays:
Test in all cases: Example B1 herbicidal action, post-emergence, 96-cell seed trays, climatic chamber
Format in all cases: in vivo
Stellaria media (STEME) = details: Application post-emergence, 1000 mg/l spray equivalent to 1000 g/ha, evaluated after 9 days (100=total damage to plant, 0=no damage to plant)
Description: (§1) Seeds of a variety of test species were sown in sterilised standard soil in seed trays each having 96 cells. After cultivation for 8 to 9 days cultivation (post-emergence) under controlled conditions in a climatic chamber (cultivation at 23/17° C., day/night; 13 hours light; 50-60% humidity), the plants were treated with an aqueous spray solution of 1000 mg/l of the active ingredient dissolved in 10% DMSO (dimethyl sulfoxide, CAS RN 67-68-5) as a solvent, equivalent to 1000 g/ha. The plants were grown in the climatic chamber after application at (24/19° C., day/night; 13 hours light; 50-60% humidity) and watered twice daily. After 9 days until the test was evaluated (100=total damage to plant, 0=no damage to plant)

[1] = tested on: Amaranthus retroflexus (AMARE); details: Application post-emergence, 1000 mg/l spray equivalent to 1000 g/ha, evaluated after 9 days
Description: as §1

Solanum nigrum (SOLNI) = details: Application post-emergence, 1000 mg/l spray equivalent to 1000 g/ha, evaluated after 9 days (100=total damage to plant, 0=no damage to plant)
Description: as §1

[2] = tested on: Nasturtium officinale (NAAOF); design: scale not given here; details: Application post-emergence, 1000 mg/l spray equivalent to 1000 g/ha, evaluated after 9 days (100=total damage to plant, 0=no damage to plant)
Description: as §1

| Structure (SMILES) | damage to plant, Stellaria media (STEME) (Stellaria media (STEME)) | damage to plant, Amaranthus retroflexus (AMARE) [1] | damage to plant, Solanum nigrum (SOLNI) (Solanum nigrum (SOLNI)) | damage to plant, Nasturtium officinale (NAAOF) [2] |
| --- | --- | --- | --- | --- |
| CCC(=O)Oc1c(-c2ccc(F)cc2Cl)c(=O)n(C)c2nccnc12 [Compound C44] | 6 | 8 | 2 | 4 |
| CCn1c(=O)c(-c2cccc(Cl)c2Cl)c(OC(=O)C(C)C)c2nccnc21 [Compound C45] | 9 | 8 | 6 | 8 |
| CC(C)Cn1c(=O)c(-c2ccccc2OC(F)(F)F)c(OC(=O)C(C)(C)C)c2nccnc21 [Compound C46] | 1 | 0 | 4 | 1 |
| CC(C)(C)C(=O)Oc1c(-c2ccccc2OC(F)(F)F)c(=O)n(CC2CC2)c2nccnc12 [Compound C47] | 0 | 4 | 3 | 1 |
| CC(C)Cn1c(=O)c(-c2c(F)ccc(F)c2Cl)c(OC(=O)C(C)(C)C)c2nccnc21 [Compound C48] | 1 | 0 | 1 | 0 |
| CC(C)(C)C(=O)Oc1c(-c2c(F)ccc(F)c2Cl)c(=O)n(CC2CC2)c2nccnc12 [Compound C49] | 3 | 3 | 0 | 0 |
| Cn1c(=O)c(-c2ccccc2Cl)c(OC(=O)C(C)(C)C)c2nccnc21 [Compound C50] | 7 | 4 | 4 | 7 |
| Cn1c(=O)c(-c2c(F)ccc(F)c2Cl)c(OC(=O)c2ccc([N+](=O)[O-])cc2)c2nccnc21 [Compound C51] | 7 | 7 | 0 | 7 |
| Cn1c(=O)c(-c2ccc3ccccc3c2)c(OC(=O)C(C)(C)C)c2nccnc21 [Compound C52] | 3 | 0 | 0 | 3 |
| Cn1c(=O)c(-c2c(F)ccc(F)c2Cl)c(OC(=O)CC(C)(C)C)c2nccnc21 [Compound C53] | 5 | 7 | 3 | 7 |
| Cn1c(=O)c(-c2c(F)ccc(F)c2F)c(OC(=O)C(C)(C)C)c2nccnc21 [Compound C55] | 4 | 4 | 0 | 0 |
| CC(C)C(=O)c1c(-c2c(Cl)cccc2Cl)c(=O)n(C)c2nccnc12 [Compound C56] | 7 | 8 | 0 | 7 |
| CCn1c(=O)c(-c2c(F)ccc(F)c2F)c(OC(=O)C(C)C)c2nccnc21 [Compound C57] | 7 | 5 | 2 | 6 |
| CC(C)C(=O)Oc1c(-c2c(F)ccc(F)c2F)c(=O)n(C)c2nccnc12 [Compound C58] | 8 | 6 | 0 | 7 |
| CCn1c(=O)c(-c2c(F)ccc(F)c2F)c(OC(=O)C(C)(C)C)c2nccnc21 [Compound C59] | 7 | 6 | 0 | 7 |
| CC(C)C(=O)Oc1c(-c2c(F)ccc(F)c2Cl)c(=O)n(CC2CC2)c2nccnc12 [Compound C60] | 5 | 7 | 7 | 8 |
| Cn1c(=O)c(-c2ccc(Cl)cc2Cl)c(OC(=O)C(C)(C)C)c2nccnc21 [Compound C61] | 8 | 8 | 2 | 8 |

| Structure (SMILES) | damage to plant, Stellaria media (STEME) (Stellaria media (STEME)) | damage to plant, Amaranthus retroflexus (AMARE) [1] | damage to plant, Solanum nigrum (SOLNI) (Solanum nigrum (SOLNI)) | damage to plant, Nasturtium officinale (NAAOF) [2] |
| --- | --- | --- | --- | --- |
| CCn1c(=O)c(-c2ccc(Cl)cc2Cl)c(OC(=O)C(C)(C)C)c2nccnc21 [Compound C62] | 8 | 7 | 1 | 8 |
| CC(C)C(=O)Oc1c(-c2ccc(Cl)cc2Cl)c(=O)n(C)c2nccnc12 [Compound C63] | 8 | 5 | 5 | 9 |
| CCn1c(=O)c(-c2ccc(Cl)cc2Cl)c(OC(=O)C(C)C)c2nccnc21 [Compound C64] | 10 | 6 | 8 | 10 |
| CCc1cc(C)cc(CC)c1-c1c(OC(=O)C(C)C)c2nccnc2n(C)c1=O [Compound C65] | 6 | 4 | 3 | 7 |
| CCn1c(=O)c(-c2cccc(Cl)c2)c(OC(C)=O)c2nccnc21 [Compound C66] | 7 | 0 | 0 | 7 |
| CCn1c(=O)c(-c2ccc(Cl)cc2)c(OC(C)=O)c2nccnc21 [Compound C67] | 6 | 4 | 0 | 8 |
| CC(C)C(=O)Oc1c(-c2cc(Cl)cc(Cl)c2Cl)c(=O)n(C)c2nccnc12 [Compound C68] | 5 | 0 | 0 | 5 |
| COc1ccccc1-c1c(OC(=O)C(C)C)c2nccnc2n(C)c1=O [Compound C69] | 6 | 0 | 0 | 5 |
| CCn1c(=O)c(-c2ccccc2OC)c(OC(=O)C(C)C)c2nccnc21 [Compound C70] | 3 | 0 | 0 | 4 |
| CC(C)C(=O)Oc1c(-c2c(F)ccc(F)c2Cl)c(=O)n(C)c2ncc[n+]([O-])c12 [Compound C71, isobutyric acid 7-(2-chloro-3,6-difluorophenyl)-5-methyl-6-oxo-1-oxy-5,6-dihydropyrido[2,3-]pyrazin-8-yl ester] | 8 | 0 | 2 | 7 |
| CCn1c(=O)c(-c2ccc(Cl)c(Cl)c2)c(OC(C)=O)c2nccnc21 [Compound C72] | 2 | 0 | 0 | 8 |
| CC#CCOC(=O)Oc1c(-c2c(F)ccc(F)c2Cl)c(=O)n(C)c2nccnc12 [Compound C73] | 4 | 4 | 0 | 6 |
| Cc1cc(C)c(-c2c(OC(=O)C(C)C)c3nccnc3n(C)c2=O)c(C)c1 [Compound C75] | 7 | 3 | 7 | 6 |
| CC(C)C(=O)Oc1c(-c2c(Cl)cccc2C(F)(F)F)c(=O)n(C)c2nccnc12 [Compound C76] | 6 | 7 | 4 | 6 |
| CCn1c(=O)c(-c2cccc(C(F)(F)F)c2Cl)c(OC(=O)C(C)C)c2nccnc21 [Compound C78] | 6 | 6 | 4 | 8 |
| CC(C)C(=O)Oc1c(-c2c(Cl)ccc(Cl)c2Cl)c(=O)n(C)c2nccnc12 [Compound C79] | 7 | 6 | 6 | 5 |
| CCn1c(=O)c(-c2c(Cl)cccc2C(F)(F)F)c(OC(=O)C(C)C)c2nccnc21 [Compound C80] | 8 | 7 | 2 | 6 |
